Source: patent publication US10512600B2, “RNA complexes that inhibit melanin production” (OliX Pharmaceuticals, Inc., priority 2015, dated 2019)
Like-named read-outs stand apart in the source and are kept apart here. Oligonucleotides are written 5' to 3', each unit as a sugar letter and its base; * is a phosphorothioate linkage, no mark a phosphodiester; rarer units and linkages stand in square brackets, end groups in braces. Plain capitals give the bases only. {Chol} = cholesterol conjugate; m = 2'-O-methyl; r = 2'-OH (RNA)

Assays:
HaCaT cells [1] = assay: Cytotoxicity (LDH, CytoTox96) and cell viability (CCK-8) in HaCaT cells; details: 24 hours, LDH and CCK-8 assays, FIG. 6
Description: (§4) One day before treatment with cp-asiRNA(4)-1, 5.0×10^3MNT-1 cells or 1.0×10^4 HaCaT cells were seeded into 96 well plates. Immediately before treatment, the cells were washed with 1×DPBS buffer (Gibco), and then cultured in the presence of 1 μM or 3 μM of cp-asiRNATYR(4)-1 in OPTI-MEM buffer for 24 hours, at which point the cytotoxicity level was measured using a CytoTox96 Non-Radio Cytotoxicity assay (Promega) according to manufacturer's instructions. The media was then replaced with the serum-containing media and cell viability was measured using a cell counting kit-8 (Enzo) according to manufacturer's instructions.

MNT-1 cells [2] = assay: Melanin content assay in treated MNT-1 cells; assay type: cell-based, human; details: 1 μM, 72 hours
Description: (§1) MNT-1 cells were cultured in Minimum Essential Media (Welgene) containing 20% fetal bovine serum (Gibco), 100 μg/ml penicillin/streptomycin, 10% 200 mM HEPES (Welgene) and 10% Dulbecco's modified Eagle's medium (Welgene). One day prior to treatment, 6.5×10^4MNT-1 cells were seeded in 12-well plates.
MNT-1 cells treated with cp-asiTYR(4)-1 as described above were tested for melanin content. After 72 hours of incubation in the presence of cp-asiTYR, the MNT-1 cells were collected, lysed with RIPA buffer (GE) and centrifuged at 13000 rpm. The resulting melanin pellet was dissolved in 100 μL of 1N NaOH (containing 10% DMSO) at 85° C. for 15 minutes and light absorption and melanin production were measured.
MNT-1 cells treated with cp-asiTYR(4) 21AS-1 or cp-asiTYR(4) 19AS-5 as described above were tested for melanin content. After 72 hours of incubation in the presence of cp-asiTYR, the MNT-1 cells were collected, lysed with RIPA buffer (GE) and centrifuged at 13000 rpm. The resulting melanin pellet was dissolved in 100 μL of 1N NaOH (containing 10% DMSO) at 85° C. for 15 minutes and light absorption and melanin production were measured.
MNT-1 cells were cultured in Minimum Essential Media (Welgene) containing 20% fetal bovine serum (Gibco), 100 μg/ml penicillin/streptomycin, 10% 200 mM HEPES (Welgene) and 10% Dulbecco's modified Eagle's medium (Welgene). One day prior to treatment, 6.5×10^4MNT-1 cells were seeded in 12-well plates. Four hours prior to treatment, the cell media was replaced with 900 μL of FBS-containing media. The PF6-complexed asiRNA or lasiRNA was added to the cells and the cells were incubated for 24 hours, at which point the media was replaced. Tyrosinase mRNA levels were measured using real-time RT-PCR 24 hours after media replacement.
To test the treated MNT-1 cells for tyrosinase protein expression and melanin production, western blot and melanin content assays were performed as described above 48 hours after media replacement.

tyrosinase protein [3] = assay: Western blot of tyrosinase protein expression in treated MNT-1 cells; assay type: cell-based, human
Description: as §1
(§2) After 72 hours of cp-asiTYR(4)-1 incubation, the level of tyrosinase protein expression was determined via western blot. Briefly, the treated MNT-1 cells were lysed with RIPA buffer (GE). Fifteen μg of the total protein extract were loaded onto a 12% SDS-PAGE gel and electrophoresed at 120 V. After electrophoresis, the proteins were transferred to PVDF membrane (Bio-rad) already activated by methanol (Merck) for 1 hour at 300 mA. The membrane was blocked for 1 hour at the room temperature with 5% skim milk (Seoul Milk) and then incubated overnight at 4° C. in 5% skim milk containing anti-tyrosinase antibody (Santa Cruz) and anti-β-actin antibody (Santa Cruz). The membrane was then washed with 1×TBST for 10 minutes three times and was incubated for 1 hour at the room temperature in 5% skim milk with HRP-conjugated secondary antibody. The membrane was washed with 1×TBST for 10 minutes and treated with 1×ECL for 1 minute. The tyrosinase and β-actin bands were then imaged using a Chemidoc instrument (Bio-rad).
as §2, with “The level” for “After 72 hours of cp-asiTYR(4)-1 incubation, the level”, “expression by MNT-1 cells after treatment with 1 μM and 3 μM cp-asiRNAs” for “expression”, “the transfected” for “the treated”
The level of tyrosinase protein expression by MNT-1 cells after treatment with 1 μM, 0.6 μM, 0.3 μM and 0.1 μM cp-asiRNAs was determined via western blot. Briefly, the transfected MNT-1 cells were lysed with RIPA buffer (GE). […]

tyrosinase mRNA = assay: Tyrosinase mRNA level in reconstructed skin model MEL-300-B by real-time PCR; assay type: cell-based; details: 5 μM every day for 13 days, day 14, FIG. 14(d)
Description: (§3) Tyrosinase expression and melanin level was analyzed in an cp-asiTYR#4-1 treated 3-D skin model. MEL-300-B (MatTek), a reconstructed skin model, was used in this study. MEL-300-B was stabilized in EPI-100-NMM-113 media 24 hours before treatment with cp-asiTYR#4-1. […] MEL-300-B samples were treated with cp-asiTYR#4-1 every day for 13 days (final concentration=5 μM) by adding cp-asiTYR#4-1 directly to the media. As a control, other MEL-300-B samples were treated with kojic acid (Sigma, 2% final) as depicted in FIG. 14(a). The samples were harvested at day 14 and the melanocytes in the sample were analyzed using light microscopy. […] Melanin level in each sample was analyzed using Fontana-Massons staining.
In order to analyze mRNA level at day 14, samples were harvested in Isol-RNA lysis reagent (5PRIME) and homogenized by using a homogenizer (IKA). Total RNA from the each sample was extracted. For each sample, 500 ng of the extracted RNA was used for cDNA synthesis using the high-capacity cDNA reverse transcription kit (Applied Biosystems) according to the manufacturer's instructions. Quantitative real-time PCR was then performed using the StepOne real-time PCR system (Applied Biosystems). Amplification of the tyrosinase cDNA was detected using a power SYBR green PCR master Mix (Applied Biosystems). GAPDH was amplified as an internal control.

[4] = system: MEL-300-B reconstructed skin model; assay: Light microscopy of melanocytes in reconstructed skin model MEL-300-B; assay type: cell-based; details: 5 μM every day for 13 days, day 14, light microscopy
Description: as §3

tyrosinase protein [5] = assay: Western blot of tyrosinase protein in reconstructed skin model MEL-300-B; assay type: cell-based; details: 5 μM every day for 13 days, day 14, FIG. 14e
Description: as §3
Protein level analysis was conducted as using western blot. Harvested samples in RIPA buffer (GE) were homogenized by using homogenizer (IKA) and protein from the each sample was obtained. Fifteen micrograms of the total protein extract were loaded onto a 12% SDS-PAGE gel and electrophoresed at 120 V. After electrophoresis, the proteins were transferred to PVDF membrane (Bio-rad) that had been previously activated with methanol (Merck) for 1 hour at 300 mA. The membrane was blocked for 1 hour at the room temperature with 5% skim milk (Seoul Milk) and then incubated overnight at 4° C. in 5% skim milk containing anti-tyrosinase antibody (Santa Cruz) and anti-β-actin antibody (Santa Cruz). […]

MNT-1 cells [6] = assay: Cytotoxicity (LDH, CytoTox96) and cell viability (CCK-8) in MNT-1 cells; assay type: cell-based, human; details: 24 hours, LDH and CCK-8 assays, FIG. 6
Description: as §4

[7] = system: MEL-300-B reconstructed skin model; assay: Melanin content assay in reconstructed skin model MEL-300-B; assay type: cell-based; details: 5 μM every day for 13 days, day 14, FIG. 14(f)
Description: as §3
To test melanin content, samples were harvested at day 14, lysed with RIPA buffer (GE) and centrifuged at 13000 rpm. The resulting pellet was dissolved in 100 μL of 1N NaOH (containing 10% DMSO) at 85° C. for 15 minutes and light absorption and melanin production were measured.

[8] = system: MEL-300-B reconstructed skin model; assay: Fontana-Massons staining for melanin in reconstructed skin model MEL-300-B; assay type: cell-based; details: 5 μM every day for 13 days, day 14, Fontana-Massons staining
Description: as §3

MNT-1 cells [9] = assay: Color change (lightening) of MNT-1 cell pellets; assay type: cell-based, human; details: 1 μM or 3 μM, 72 hours, FIG. 5
Description: as §1
After 72 hours, cells were pelleted and the color change of the cells was observed.

HaCaT cells [10] = system: HaCaT cells
Description: as §4

Compound: OC[C@H]1O[C@@H](Oc2ccc(O)cc2)[C@H](O)[C@@H](O)[C@@H]1O [arbutin]
- cytotoxicity / cell viability (HaCaT cells [1]): cytotoxicity was observed

Compound: Oc1ccc(O)cc1 [hydroquinone]
- cytotoxicity / cell viability (HaCaT cells [1]): cytotoxicity was observed

Compound: cp-asiTYR(4) 19AS-5: S: GCUGACAGGAGAUG*A*A*cholesterol (SEQ ID NO: 131); AS: UUCAUCUCCUGUCAG*C*mU*mU*mC (SEQ ID NO: 160) (sense rGrCrUrGrArCrArGrGrArGrArUrG*rA*rA*{Chol}; antisense rUrUrCrArUrCrUrCrCrUrGrUrCrArG*rC*mU*mU*mC; siRNA)
- inhibition in melanin production (MNT-1 cells [2]; FIG. 9): ~50%
- inhibition in melanin production compared with arbutin (MNT-1 cells [2]; FIG. 9): higher than the inhibition shown in MNT-1 cells treated with 2 mM arbutin
- relative inhibitory activity on tyrosinase protein (tyrosinase protein [3]; 1 μM and 3 μM, FIG. 8): slightly higher inhibitory activity than cp-asiTYR(4) 21AS-1

Compound: cp-asiTYR(4)-1: S: GCUGACAGGAGAUG*A*A*cholesterol (SEQ ID NO: 131); AS: UUCAUCUCCUGUCAGCU*U*C*U*G (SEQ ID NO: 132) (sense GCUGACAGGAGAUGAA; antisense UUCAUCUCCUGUCAGCUUCUG; siRNA; sense: linkages o13 s2 (s phosphorothioate, o phosphodiester), 3' *{Chol}, sugars by position and methylation of C not given here; antisense: linkages o16 s4 (s phosphorothioate, o phosphodiester), sugars by position and methylation of C not given here)
- level of tyrosinase mRNA (tyrosinase mRNA): reduced the level of tyrosinase mRNA
- level of melanocytes [4]: reduced the level of melanocytes
- tyrosinase protein level (tyrosinase protein [5]): potent knockdown of tyrosinase protein
- cytotoxicity / cell viability (MNT-1 cells [6]): no cytotoxicity or loss of cell viability was observed
- melanin level (melanin content) [7]: reduced melanin level
- inhibition in melanin production compared with hydroquinone and arbutin (MNT-1 cells [2]; FIG. 4): higher than when treated with compounds commonly used for melanin production, including hydroquinone (20 μM) and arbutin (2 mM)
- inhibition in melanin production (MNT-1 cells [2]; FIG. 9): ~50%
- inhibition in melanin production compared with arbutin (MNT-1 cells [2]; FIG. 9): higher than the inhibition shown in MNT-1 cells treated with 2 mM arbutin
- inhibition in melanin production (MNT-1 cells [2]; without transfection vehicle, FIG. 4): greater than 60%
- tyrosinase protein inhibition (tyrosinase protein [3]; 1 μM or 3 μM, 72 hours, without transfection vehicle, FIG. 3): ≥ 70%
- relative inhibitory activity on tyrosinase protein (tyrosinase protein [3]; 1 μM to 0.1 μM, FIG. 10): slightly higher inhibitory activity than cp-asiTYR(4) 19AS-7
- tyrosinase inhibition ability compared with other tyrosinase inhibitors (tyrosinase protein [3]; 72 hours, western blot, FIG. 3): higher efficiency in the tyrosinase inhibition ability than other tyrosinase inhibitors such as Hydroquinone and Arbutin
- level of melanin [8]: reduced the level of melanin
- color of treated cells (MNT-1 cells [9]): lighter than untreated MNT-1 control cells (NT), hydroquinone treated cells and arbutin treated cells
- cytotoxicity / cell viability (HaCaT cells [10]): no cytotoxicity or loss of cell viability was observed
